Experimental data as given in US20110028445A1, “Urea derivatives of benzomorphanes and related scaffolds, medicaments containing such compounds and their use” (BOEHRINGER INGELHEIM INTERNATIONAL GMBH, priority 2008, published 2011).

Biological target: T1, 11β-HSD1 (Homo sapiens, UniProt P28845)
T1 construct: detecting cortisol generated from cortisterone by human liver microsomes; from tissue; host or cells: human liver microsomes
Assay: In vitro inhibition of 11β-HSD1, HTRF detection of cortisol generated by human liver microsomes
Assay type: biochemical
Conditions: compound concentration 1 μM, 100% indicates no inhibition, zero or below zero indicates complete inhibition, cortisone 80 nM, 1 hour at 37° C., read-out: % CTL at 1 μM
Description: Briefly, compounds were incubated for 1 hour at 37° C. in Tris buffer (20 mM tris, 5 mM EDTA, pH 6.0) containing NADPH (200 μM) and cortisone (80 nM). Cortisol generated in the reaction is then detected with a competitive immunoassay, involving two HTRF conjugates: cortisol linked to XL665 and anti-cortisol antibody labeled with Europium cryptate. The incubation period for detection reaction was typically 2 hours. The amount of cortisol is determined by reading the time-resolved fluorescence of the wells (Ex 320/75 nm; Em 615/8.5 nm and 665/7.5 nm). The ratio of the two emission signals is then calculated (Em665*10000/Em615). […] Each assay also contained a calibration curve with cortisol to transform the fluorescent data into cortisol concentrations. Percent inhibition of each compound was determined relative to the carbenoxolone signal and IC50 curves were generated.
The % CTL values of some example compounds at a concentration of 1 μM are provided in the following Table 2 wherein 100% indicates no inhibition and a value of zero or below zero indicates complete inhibition. The measurement of % CTL is described hereinbefore.

T1 sequence (P28845 whole entry): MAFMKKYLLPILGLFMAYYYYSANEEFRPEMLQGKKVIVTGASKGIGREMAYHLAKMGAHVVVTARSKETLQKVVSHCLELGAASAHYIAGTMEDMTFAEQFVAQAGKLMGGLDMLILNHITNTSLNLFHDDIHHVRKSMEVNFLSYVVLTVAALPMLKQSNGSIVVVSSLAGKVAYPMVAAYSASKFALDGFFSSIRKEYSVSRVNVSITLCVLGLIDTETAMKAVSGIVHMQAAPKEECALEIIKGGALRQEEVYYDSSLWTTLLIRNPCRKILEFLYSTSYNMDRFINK

Row | Compound | remaining activity at 1 µM [%]
1 | CC1(C)[C@H]2Cc3c(O)cccc3[C@]1(C)CCN2C(=O)N1CCc2cc(O)ccc21 [Example 53] | 7
2 | CC1(O)CCN(C(=O)N2CC[C@@]3(C)c4ccccc4C[C@@H]2C3(C)C)CC1 [Example 54] | -25
3 | CC1(C)[C@H]2Cc3c(O)cccc3[C@]1(C)CCN2C(=O)N1CCCC2(CCNC2=O)C1 (some centres unmarked) [Example 55] | -31
4 | CC1(C)[C@H]2Cc3c(O)cccc3[C@]1(C)CCN2C(=O)N1CCc2ccc(O)cc2C1 [Example 58] | -37
5 | CC1(C)[C@H]2Cc3c(O)cccc3[C@]1(C)CCN2C(=O)N1CCCC(c2nnn[nH]2)C1 (some centres unmarked) [Example 59] | 70
6 | CC1(C)[C@H]2Cc3ccccc3[C@]1(C)CCN2C(=O)N1CCCC2(CCCNC2=O)C1 (some centres unmarked) [Example 60] | -19
7 | CC1(C)[C@H]2Cc3ccccc3[C@]1(C)CCN2C(=O)N1CCC(c2ccccc2)C1 (some centres unmarked) [Example 61] | 7
8 | CCOC(=O)[C@H]1CCCN(C(=O)N2CC[C@@]3(C)c4ccccc4C[C@@H]2C3(C)C)C1 [Example 62] | 13
9 | CCOC(=O)C1CCCN(C(=O)N2CC[C@@]3(C)c4ccccc4C[C@@H]2C3(C)C)C1 (some centres unmarked) [Example 63] | 47
10 | CC1(C)[C@H]2Cc3ccccc3[C@]1(C)CCN2C(=O)N1CCC[C@H](CO)C1 [Example 64] | -33
11 | CC(C)(O)C1CCN(C(=O)N2CC[C@@]3(C)c4ccccc4C[C@@H]2C3(C)C)CC1 [Example 65] | 2
12 | CC(C)(O)[C@@H]1CCCN(C(=O)N2CC[C@@]3(C)c4ccccc4C[C@@H]2C3(C)C)C1 [Example 66, [(R)-3-(1-Hydroxy-1-methyl-ethyl)-piperidin-1-yl]-[(2R,6S)-6,11,11-trimethyl-1,2,5,6-tetrahydro-4H-2,6-methano-benzo[d]azocin-3-yl]-methanone] | -16
13 | CC1(C)[C@H]2Cc3ccccc3[C@]1(C)CCN2C(=O)N1CCOC[C@H]1c1ccccc1 [Example 67] | 71
14 | CC1(C)[C@H]2Cc3ccccc3[C@]1(C)CCN2C(=O)N1CCOCC1c1ccccc1 (some centres unmarked) [Example 68] | 87
15 | CC(C)(O)[C@H]1CCCN(C(=O)N2CC[C@@]3(C)c4ccccc4C[C@@H]2C3(C)C)C1 [Example 69] | 6
16 | CC1(C)[C@H]2Cc3ccccc3[C@]1(C)CCN2C(=O)N1CCC(O)CC1 [Example 70] | -15
17 | CC1(C)[C@H]2Cc3ccccc3[C@]1(C)CCN2C(=O)N1CCC[C@@H](CO)C1 [Example 71, [(R)-3-Hydroxymethyl-piperidin-1-yl]-[(2R,6S)-6,11,11-trimethyl-1,2,5,6-tetrahydro-4H-2,6-methano-benzo[d]azocin-3-yl)-methanone] | -18
18 | CC1(C)[C@H]2Cc3ccccc3[C@]1(C)CCN2C(=O)N1CCC(O)(C(F)(F)F)CC1 [Example 72] | -11
19 | CC1(C)[C@H]2Cc3ccccc3[C@]1(C)CCN2C(=O)N1[C@@H]2CC[C@H]1C[C@](O)(C(F)(F)F)C2 [Example 73] | -6
20 | CC1(C)[C@H]2Cc3ccccc3[C@]1(C)CCN2C(=O)N1[C@@H]2CC[C@H]1C[C@@H](O)C2 [Example 74] | -17
21 | COC(=O)CC1(c2ccccc2)CCN(C(=O)N2CC[C@@]3(C)c4ccccc4C[C@@H]2C3(C)C)C1 (some centres unmarked) [Example 75] | 26
22 | CC1(C)[C@H]2Cc3ccccc3[C@]1(C)CCN2C(=O)N1[C@@H]2CC[C@H]1CC(=O)C2 [Example 76] | -10
23 | CC1(C)[C@H]2Cc3ccccc3[C@]1(C)CCN2C(=O)N1CCC(CCO)(c2ccccc2)C1 (some centres unmarked) [Example 77] | 30
24 | CC(C)(O)CC1(c2ccccc2)CCN(C(=O)N2CC[C@@]3(C)c4ccccc4C[C@@H]2C3(C)C)C1 (some centres unmarked) [Example 78] | 61
25 | CC1(C)[C@H]2Cc3ccccc3[C@]1(C)CCN2C(=O)N1[C@@H]2CC[C@H]1C[C@H](O)C2 [Example 79, (exo-3-Hydroxy-8-aza-bicyclo[3.2.1]oct-8-yl)-[(2R,6S)-6,11,11-trimethyl-1,2,5,6-tetrahydro-4H-2,6-methano-benzo[d]azocin-3-yl]-methanone] | 13
26 | CC1(C)[C@H]2Cc3ccccc3[C@]1(C)CCN2C(=O)N1[C@@H]2CC[C@H]1C[C@@](O)(C(F)(F)F)C2 [Example 80] | 70
